Laboratory results taken from the supplement of paper PMC10307832.

Assays:
Experiment in all cases: relative viability (nuclei count vs DMSO), 5 days (fraction); higher = more cells survive
[1] = compound: CC(C)C[C@H](NC(=O)[C@H](Cc1ccccc1)NC(=O)c1cnccn1)B(O)O [Bortezomib] + O=C(c1cc(Cc2n[nH]c(=O)c3ccccc23)ccc1F)N1CCN(C(=O)C2CC2)CC1 [Olaparib] (partner 8 µM)
Outline: (§1)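 Cells from lung cancer lines were seeded into 1536-well plates and, one day later, dosed by pin tool. Treatments were either a single drug or a fixed dose of an anchor drug with five library-drug doses (not always all listed) in √10 steps. After 5 days, nuclei were stained in a one-step fixation (final 0.05% Triton X-100, 1% formaldehyde, 1 ug/ml Hoechst) and counted on 4× images, and relative viability is the treated-to-vehicle nuclei ratio, as the median of duplicate plates.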

[2] = compound: COC1=CC(c2cc3ccccc3[nH]2)=N/C1=C\c1[nH]c(C)cc1C [Obatoclax] + CCNC(=O)c1noc(-c2cc(C(C)C)c(O)cc2O)c1-c1ccc(CN2CCOCC2)cc1 [Luminespib] (partner 0.01 µM)
Outline: as §1

[3] = compound: COC1=CC(c2cc3ccccc3[nH]2)=N/C1=C\c1[nH]c(C)cc1C [Obatoclax] + CC(C)C[C@H](NC(=O)[C@H](Cc1ccccc1)NC(=O)c1cnccn1)B(O)O [Bortezomib] (partner 0.002 µM)
Outline: as §1

[4] = compound: CC(C)C[C@H](NC(=O)[C@H](Cc1ccccc1)NC(=O)c1cnccn1)B(O)O [Bortezomib] + COc1cccc2cc(-c3nc([C@H]4CC[C@H](C(=O)O)CC4)n4ncnc(N)c34)[nH]c12 [OSI-027] (partner 0.5 µM)
Outline: as §1

Cell Line	relative viability ([1]; first compound 0.0002 µM)	relative viability ([1]; first compound 0.000632 µM)	relative viability ([1]; first compound 0.002 µM)	relative viability ([1]; first compound 0.006325 µM)	relative viability ([1]; first compound 0.02 µM)	relative viability ([2]; first compound 0.01 µM)	relative viability ([2]; first compound 0.03162 µM)	relative viability ([2]; first compound 0.1 µM)	relative viability ([2]; first compound 0.3162 µM)	relative viability ([2]; first compound 1 µM)	relative viability ([3]; first compound 0.01 µM)	relative viability ([3]; first compound 0.03162 µM)	relative viability ([3]; first compound 0.1 µM)	relative viability ([3]; first compound 0.3162 µM)	relative viability ([3]; first compound 1 µM)	relative viability ([4]; first compound 0.0002 µM)	relative viability ([4]; first compound 0.000632 µM)	relative viability ([4]; first compound 0.002 µM)	relative viability ([4]; first compound 0.006325 µM)	relative viability ([4]; first compound 0.02 µM)
NCI-H2087	0.634	0.672	0.286	0.0419	0.0226	0.164	0.166	0.161	0.121	0.121	0.645	0.775	0.665	0.779	0.335	0.667	0.401	0.224	0.0576	0.0622
NCI-H2126	0.851	0.903	0.9	0.794	0.184	0.857	0.876	0.875	0.806	0.679	1.13	1.04	1.09	1.12	1.07	0.737	0.652	0.622	0.62	0.663
NCI-H2228	0.541	0.615	0.289	0.0866	0.0966	0.164	0.109	0.138	0.113	0.186	0.96	1.01	1.25	0.626	0.367	0.51	0.674	0.294	0.0867	0.115
NCI-H2347	0.413	0.572	0.338	0.245	0.249	0.595	0.374		0.269	0.23	0.935	0.859	1.07		0.95	0.559	0.367	0.291	0.182	0.194
NCI-H2405	0.859	0.834	0.334	0.199	0.161	0.606	0.67		0.782	0.735	1.01	0.852		0.982	1.07	0.635	0.589	0.661	0.319	0.205
NCI-H3122	0.557	0.621	0.604	0.243	0.0898	0.0984	0.0854	0.0999	0.0772	0.0894	0.966	1.01	1.02	1.03	1.06	0.993	1.03	0.935	0.206	0.133
PC-3 [JPC-3]	1.08	1.14	0.451	0.236	0.216	0.652	0.606	0.742	0.683	0.745	0.905	0.789	0.815	0.827	0.977	0.807	0.824	0.806	0.446	0.122
PC-14	0.239	0.282	0.323	0.0333	0.0494	0.132	0.138	0.148	0.13	0.146	0.782	0.947	0.777	0.798	0.283		0.765	0.714	0.033	0.0438
